# ChEMBL document CHEMBL3352103, “Investigations of amide bond variation and biaryl modification in analogues of α7 nAChR agonist SEN12333” (Eur J Med Chem, 2014)
# Columns and labels:
# [1] = biological target: T1, Neuronal acetylcholine receptor subunit alpha-7 (Rattus norvegicus, UniProt Q05941); assay: Agonist activity at rat nAChR alpha7 expressed in GH4C1 cells by fluorescent calcium assay; format: cell-based, GH4-C1
# [2] = biological target: Neuronal acetylcholine receptor; alpha3/beta4 (Rattus norvegicus, UniProt P04757+P12392); assay: Displacement of [3H]EB from rat nAChR alpha3beta4 expressed in HEK293 cell membranes by liquid scintillation counting
# [3] = biological target: T1, Neuronal acetylcholine receptor subunit alpha-7; assay: Displacement of [3H]EB from rat nAChR alpha7 expressed in HEK293 cell membranes by liquid scintillation counting
# [4] = biological target: Neuronal acetylcholine receptor; alpha4/beta2 (Rattus norvegicus, UniProt P09483+P12390); assay: Displacement of [3H]EB from rat nAChR alpha4beta2 expressed in HEK293 cell membranes by liquid scintillation counting
# Sequence of Neuronal acetylcholine receptor; alpha4/beta2 (P09483 whole entry): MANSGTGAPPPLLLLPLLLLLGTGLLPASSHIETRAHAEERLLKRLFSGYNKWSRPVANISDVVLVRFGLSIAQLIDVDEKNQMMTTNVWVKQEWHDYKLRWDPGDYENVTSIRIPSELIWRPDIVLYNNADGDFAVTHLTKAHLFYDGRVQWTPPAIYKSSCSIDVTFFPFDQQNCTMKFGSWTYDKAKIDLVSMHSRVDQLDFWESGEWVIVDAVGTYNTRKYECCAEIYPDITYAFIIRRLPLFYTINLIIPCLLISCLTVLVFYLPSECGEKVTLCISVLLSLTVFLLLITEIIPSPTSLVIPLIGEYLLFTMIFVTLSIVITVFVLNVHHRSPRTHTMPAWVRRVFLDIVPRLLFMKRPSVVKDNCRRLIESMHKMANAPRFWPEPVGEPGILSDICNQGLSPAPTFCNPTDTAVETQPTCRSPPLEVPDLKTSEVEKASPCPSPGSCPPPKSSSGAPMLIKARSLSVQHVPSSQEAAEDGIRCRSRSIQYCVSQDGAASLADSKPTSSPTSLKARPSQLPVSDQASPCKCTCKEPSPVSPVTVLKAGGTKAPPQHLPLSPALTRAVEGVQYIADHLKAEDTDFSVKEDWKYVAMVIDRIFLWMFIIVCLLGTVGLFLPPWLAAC
# Sequence of Neuronal acetylcholine receptor; alpha4/beta2 (P12390 whole entry): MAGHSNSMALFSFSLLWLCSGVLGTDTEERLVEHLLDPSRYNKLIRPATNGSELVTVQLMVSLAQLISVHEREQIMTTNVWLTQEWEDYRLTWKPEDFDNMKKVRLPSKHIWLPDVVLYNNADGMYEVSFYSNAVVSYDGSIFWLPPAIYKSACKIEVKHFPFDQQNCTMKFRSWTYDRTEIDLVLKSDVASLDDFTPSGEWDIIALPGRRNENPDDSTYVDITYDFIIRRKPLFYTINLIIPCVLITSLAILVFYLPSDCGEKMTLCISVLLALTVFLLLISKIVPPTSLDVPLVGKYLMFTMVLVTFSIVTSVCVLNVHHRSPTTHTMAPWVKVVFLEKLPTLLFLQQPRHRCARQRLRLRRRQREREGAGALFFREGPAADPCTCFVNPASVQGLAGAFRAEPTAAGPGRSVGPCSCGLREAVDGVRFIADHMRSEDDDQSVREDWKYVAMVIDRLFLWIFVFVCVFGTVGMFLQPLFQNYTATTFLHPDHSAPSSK
# Sequence of Neuronal acetylcholine receptor; alpha3/beta4 (P04757 whole entry): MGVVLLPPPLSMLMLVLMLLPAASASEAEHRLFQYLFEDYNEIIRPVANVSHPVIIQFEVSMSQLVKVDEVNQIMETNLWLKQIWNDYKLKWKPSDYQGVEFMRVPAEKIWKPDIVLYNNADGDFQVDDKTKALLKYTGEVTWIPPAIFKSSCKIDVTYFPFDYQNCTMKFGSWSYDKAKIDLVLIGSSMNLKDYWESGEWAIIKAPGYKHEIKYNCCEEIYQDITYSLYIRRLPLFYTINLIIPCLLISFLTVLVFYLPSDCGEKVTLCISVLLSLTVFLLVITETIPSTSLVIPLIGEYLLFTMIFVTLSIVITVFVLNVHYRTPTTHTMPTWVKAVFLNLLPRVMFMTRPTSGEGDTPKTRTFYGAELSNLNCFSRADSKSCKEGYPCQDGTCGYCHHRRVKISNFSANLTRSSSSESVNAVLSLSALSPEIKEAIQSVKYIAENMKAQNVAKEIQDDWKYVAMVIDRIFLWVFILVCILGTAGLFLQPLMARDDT
# Sequence of Neuronal acetylcholine receptor; alpha3/beta4 (P12392 whole entry): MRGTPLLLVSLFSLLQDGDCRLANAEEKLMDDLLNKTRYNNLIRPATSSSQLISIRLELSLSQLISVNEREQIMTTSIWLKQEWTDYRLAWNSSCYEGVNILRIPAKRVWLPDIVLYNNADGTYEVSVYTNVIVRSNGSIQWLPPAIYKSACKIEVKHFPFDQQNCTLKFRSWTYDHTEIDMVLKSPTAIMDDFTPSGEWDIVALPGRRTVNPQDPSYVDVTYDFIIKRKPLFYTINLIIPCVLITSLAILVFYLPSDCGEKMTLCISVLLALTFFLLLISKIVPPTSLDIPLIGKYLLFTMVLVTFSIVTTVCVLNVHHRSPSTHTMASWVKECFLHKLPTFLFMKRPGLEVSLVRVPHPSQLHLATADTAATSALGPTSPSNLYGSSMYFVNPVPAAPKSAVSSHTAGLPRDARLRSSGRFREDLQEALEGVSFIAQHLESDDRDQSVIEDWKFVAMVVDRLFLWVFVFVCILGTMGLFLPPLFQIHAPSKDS
# T1 sequence (Q05941 whole entry): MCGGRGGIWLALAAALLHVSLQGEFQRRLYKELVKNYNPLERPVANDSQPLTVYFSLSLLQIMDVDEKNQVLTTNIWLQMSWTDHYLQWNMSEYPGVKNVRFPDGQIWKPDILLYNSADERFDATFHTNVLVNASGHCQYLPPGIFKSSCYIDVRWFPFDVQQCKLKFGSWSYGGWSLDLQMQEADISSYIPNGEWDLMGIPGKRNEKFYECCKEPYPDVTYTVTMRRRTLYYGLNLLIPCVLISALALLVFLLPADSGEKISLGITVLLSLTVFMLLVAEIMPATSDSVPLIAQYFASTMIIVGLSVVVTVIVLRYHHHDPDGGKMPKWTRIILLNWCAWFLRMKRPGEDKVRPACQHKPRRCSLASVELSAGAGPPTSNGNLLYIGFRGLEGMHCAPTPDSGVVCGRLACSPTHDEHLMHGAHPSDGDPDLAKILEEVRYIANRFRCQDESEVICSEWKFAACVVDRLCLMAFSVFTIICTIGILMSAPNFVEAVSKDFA
EC50 ([1]; read-out: EC50) [µM],Ki ([2]; read-out: Ki) [µM],Ki [3] [µM],Ki ([4]; read-out: Ki) [µM],EC50 ([1]; gh4-c1),Ki ([2]; hek293),Ki ([4]; hek293),Structure (SMILES)
1.75,> 10,2.3,> 10,–,–,–,O=C(CCCCN1CCOCC1)Nc1ccc(-c2ccccc2)cc1
2.37,> 10,1.8,> 10,–,–,–,O=C(NCCCCN1CCOCC1)c1ccc(-c2ccccc2)cc1
–,> 100,156,–,Not Active,–,Not Active,c1ccc(-c2ccc(-c3nnnn3CCCCN3CCOCC3)cc2)cc1

# Second part, the molecule before the results:
Structure (SMILES),EC50 ([1]; read-out: EC50) [µM],Ki ([2]; read-out: Ki) [µM],Ki [3] [µM],Ki ([4]; read-out: Ki) [µM],EC50 ([1]; gh4-c1),Ki ([2]; hek293),Ki ([4]; hek293)
O=C(CCCCN1CCOCC1)Nc1ccc(-c2cccnc2)cc1,0.86,> 10,0.67,> 10,–,–,–
O=C(NCCCCN1CCOCC1)c1ccc(-c2cccnc2)cc1,–,> 10,11,> 10,Not Active,–,–
c1cncc(-c2ccc(-n3nnnc3CCCCN3CCOCC3)cc2)c1,–,–,216,–,Not Active,Not Active,Not Active
c1ccc(-c2ccc(-n3nnnc3CCCCN3CCOCC3)cc2)cc1,–,> 1000,236,–,Not Active,–,Not Active
c1cncc(-c2ccc(-c3nnnn3CCCCN3CCOCC3)cc2)c1,–,> 1000,165,–,Not Active,–,Not Active
